How the values were obtained:
[1] = Induction of microtubule depolymerization in rat A10 cells after 18 hrs by indirect immunofluorescence assay; type: cell-based
MDA-MB-435 = experiment: Antiproliferative activity against human MDA-MB-435 cells after 48 hrs by sulforhodamine B assay; type: functional, cell-based; conditions: MDA-MB-435, 48 h
[2] = Antiproliferative activity against human SKOV3 cells overexpressing wild type beta3 tubulin after 48 hrs by sulforhodamine B assay; type: functional, cell-based; conditions: SK-OV-3, 48 h
[3] = Antiproliferative activity against human SKOV3-MDR1-M6/6 cells overexpressing wild type beta3 tubulin after 48 hrs by sulforhodamine B assay; type: functional, cell-based; conditions: SKOV3-MDR1-M6/6, 48 h
[4] = biological target: Vascular endothelial growth factor receptor 2 (Homo sapiens, UniProt P35968); type: cell-based, U-251
[5] = biological target: Platelet-derived growth factor receptor beta (Homo sapiens, UniProt P09619); experiment: Inhibition of PDGFR-beta in human U251 cells compound pretreated for 60 min before PDGF-BB stimulation for 10 mins by phosphotyrosine ELISA cytoblot method; type: cell-based, U-251
A-431 = experiment: Antiproliferative activity against human A431 cells after 48 hrs by sulforhodamine B assay; type: functional, cell-based; conditions: A-431, 48 h
[6] = Antiangiogenic activity in VEGF-165 and bFGF-stimulated chicken embryo chorioallantoic membrane assessed as inhibition of blood vessel formation after 40 hrs by microscopy; type: functional, tissue-based, Gallus gallus

Chain of Platelet-derived growth factor receptor beta (P09619 whole entry): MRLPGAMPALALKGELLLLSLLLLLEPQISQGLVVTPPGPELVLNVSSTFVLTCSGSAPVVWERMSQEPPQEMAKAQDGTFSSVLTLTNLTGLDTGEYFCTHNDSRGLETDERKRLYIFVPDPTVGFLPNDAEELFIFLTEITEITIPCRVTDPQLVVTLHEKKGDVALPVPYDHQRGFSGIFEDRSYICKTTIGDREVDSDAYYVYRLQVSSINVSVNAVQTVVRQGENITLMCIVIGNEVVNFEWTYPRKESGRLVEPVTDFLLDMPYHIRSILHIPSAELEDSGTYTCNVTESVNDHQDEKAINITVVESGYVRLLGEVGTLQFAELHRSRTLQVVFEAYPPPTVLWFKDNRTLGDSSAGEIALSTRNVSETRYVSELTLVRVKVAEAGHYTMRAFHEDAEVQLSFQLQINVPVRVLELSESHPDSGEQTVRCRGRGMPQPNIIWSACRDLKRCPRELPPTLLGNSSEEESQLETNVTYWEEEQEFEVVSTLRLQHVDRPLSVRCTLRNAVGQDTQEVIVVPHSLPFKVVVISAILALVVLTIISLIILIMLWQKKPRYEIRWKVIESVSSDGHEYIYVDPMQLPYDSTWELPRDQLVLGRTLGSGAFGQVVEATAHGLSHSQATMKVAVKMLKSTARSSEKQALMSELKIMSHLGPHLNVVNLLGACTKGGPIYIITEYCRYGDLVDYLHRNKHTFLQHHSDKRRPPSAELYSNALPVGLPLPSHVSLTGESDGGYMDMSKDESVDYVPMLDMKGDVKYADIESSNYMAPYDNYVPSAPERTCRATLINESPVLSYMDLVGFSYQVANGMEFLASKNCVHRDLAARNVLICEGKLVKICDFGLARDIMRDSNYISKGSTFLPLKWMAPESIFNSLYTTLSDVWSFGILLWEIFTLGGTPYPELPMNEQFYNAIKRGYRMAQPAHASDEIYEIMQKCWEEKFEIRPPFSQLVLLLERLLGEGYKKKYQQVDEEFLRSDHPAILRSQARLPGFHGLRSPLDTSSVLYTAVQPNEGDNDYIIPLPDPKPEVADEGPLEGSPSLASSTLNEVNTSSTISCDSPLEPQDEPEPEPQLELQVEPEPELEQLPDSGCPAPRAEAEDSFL
Chain of Vascular endothelial growth factor receptor 2 (P35968 whole entry): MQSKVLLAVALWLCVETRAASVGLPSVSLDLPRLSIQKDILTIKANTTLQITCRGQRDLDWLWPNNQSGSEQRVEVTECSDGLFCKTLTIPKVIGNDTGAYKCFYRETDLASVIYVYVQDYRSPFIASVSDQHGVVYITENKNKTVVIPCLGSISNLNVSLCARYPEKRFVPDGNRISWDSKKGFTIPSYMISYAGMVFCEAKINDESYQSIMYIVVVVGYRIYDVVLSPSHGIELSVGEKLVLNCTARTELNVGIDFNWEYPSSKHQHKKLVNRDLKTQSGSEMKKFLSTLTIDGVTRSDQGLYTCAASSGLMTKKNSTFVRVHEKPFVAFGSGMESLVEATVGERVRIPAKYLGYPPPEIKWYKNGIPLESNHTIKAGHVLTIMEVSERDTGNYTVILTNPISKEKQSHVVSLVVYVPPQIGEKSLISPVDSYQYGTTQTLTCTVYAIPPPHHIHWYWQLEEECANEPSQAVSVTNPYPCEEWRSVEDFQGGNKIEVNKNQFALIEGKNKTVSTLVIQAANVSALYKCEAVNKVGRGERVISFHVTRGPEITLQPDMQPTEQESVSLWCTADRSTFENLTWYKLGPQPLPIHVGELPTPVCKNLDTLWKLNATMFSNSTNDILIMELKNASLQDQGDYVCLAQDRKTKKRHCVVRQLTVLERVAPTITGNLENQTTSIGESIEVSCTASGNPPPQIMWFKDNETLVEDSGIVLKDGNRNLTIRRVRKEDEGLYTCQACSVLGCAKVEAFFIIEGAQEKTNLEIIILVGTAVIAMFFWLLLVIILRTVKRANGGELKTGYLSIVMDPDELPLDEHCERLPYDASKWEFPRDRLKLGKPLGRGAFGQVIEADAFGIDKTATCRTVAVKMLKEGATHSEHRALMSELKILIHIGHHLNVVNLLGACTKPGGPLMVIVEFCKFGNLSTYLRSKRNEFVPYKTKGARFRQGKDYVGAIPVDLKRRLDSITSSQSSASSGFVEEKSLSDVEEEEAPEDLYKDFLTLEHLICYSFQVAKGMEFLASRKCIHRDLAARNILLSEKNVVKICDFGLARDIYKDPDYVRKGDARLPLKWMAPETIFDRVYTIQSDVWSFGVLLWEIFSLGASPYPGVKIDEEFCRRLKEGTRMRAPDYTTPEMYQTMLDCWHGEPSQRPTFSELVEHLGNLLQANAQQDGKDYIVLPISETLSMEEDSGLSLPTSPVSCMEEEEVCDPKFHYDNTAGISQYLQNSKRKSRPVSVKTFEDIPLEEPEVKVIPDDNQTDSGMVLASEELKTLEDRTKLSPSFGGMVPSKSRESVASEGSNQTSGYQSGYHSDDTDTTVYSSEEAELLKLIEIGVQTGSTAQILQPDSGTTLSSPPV

Row | IC50 [4] [nM] | IC50 [5] [nM] | IC50 (A-431) [nM] | SMILES | EC50 [1] [nM] | IC50 (MDA-MB-435) [nM] | IC50 [2] [nM] | IC50 [3] [nM] | IC50 [6] [nM]
1 | – | – | – | COc1ccc(/C=C\c2cc(OC)c(OC)c(OC)c2)cc1O [COMBRETASTATIN A4] | 9.8 | 5 | 6.9 | 3 | –
2 | 32.3 | 40.4 | 17.1 | COc1ccc(N(C)c2nc(C)nc3oc(C)cc23)c(OC)c1 | – | – | – | – | –
3 | – | – | 48.9 | Cc1nc(N(C)c2ccc3c(c2)OCO3)c2cc(C)oc2n1 | > 10000 | – | – | – | 38200
